Source: article doi:10.64898/2025.12.31.697154v2, “Two phytohormones synergistically induce parasitic weeds seed germination via KAI2d receptors” (biorxiv, 2026)

What was measured:
OmKAI2d10–OmSMAX1D1M = tested on: T1, OmKAI2d10–OmSMAX1D1M; test: TR-FRET, ligand-induced KAI2d–SMAX1 D1M interaction; assay type: biochemical, Orobanche minor; details: without rac-GR24; 300 min
T1 construct: gene KAI2d10; KAI2d10 plus SMAX1 D1M domain only; ligand-induced complex in TR-FRET; borders and tags not given

OmKAI2d3 = target: T2, OmKAI2d3; test: isothermal titration calorimetry; assay type: binding, Orobanche minor; details: suggested allosteric site
T2 construct: gene KAI2d3; soluble recombinant protein

OmKAI2d3–OmSMAX1D1M = tested on: T3, OmKAI2d3–OmSMAX1D1M; test: TR-FRET, ligand-induced KAI2d–SMAX1 D1M interaction; assay type: biochemical, Orobanche minor; details: without rac-GR24; 300 min
T3 construct: gene KAI2d3; KAI2d3 plus SMAX1 D1M domain only; ligand-induced complex in TR-FRET; borders and tags not given

OmKAI2d9–OmSMAX1D1M = tested on: T4, OmKAI2d9–OmSMAX1D1M; test: as above; assay type: biochemical, Orobanche minor; details: without rac-GR24; 300 min
T4 construct: gene KAI2d9; KAI2d9 plus SMAX1 D1M domain only; ligand-induced complex in TR-FRET; borders and tags not given

CC/C=C\C[C@@H]1C(=O)C=C[C@@H]1CCCCCCCC(=O)O [cis-OPDA]
EC50 (OmKAI2d10–OmSMAX1D1M): 104 µM
Kd (OmKAI2d3): 19.8 µM
EC50 (OmKAI2d3–OmSMAX1D1M): 217 µM
EC50 (OmKAI2d9–OmSMAX1D1M): 197 µM
